Test results: ChEMBL document CHEMBL2073909 (J Pharmacol Exp Ther, 1999)

Tests used:
[1] = biological target: T1, Hepatic sodium/bile acid cotransporter (Homo sapiens, UniProt Q14973); assay: TP_TRANSPORTER: inhibition of Taurocholate uptake (Taurocholate: 5 uM, Chlorpropamide: 100 uM) in NTCP-expressing HeLa cells; format: functional, cell-based
T1 sequence (Q14973 whole entry): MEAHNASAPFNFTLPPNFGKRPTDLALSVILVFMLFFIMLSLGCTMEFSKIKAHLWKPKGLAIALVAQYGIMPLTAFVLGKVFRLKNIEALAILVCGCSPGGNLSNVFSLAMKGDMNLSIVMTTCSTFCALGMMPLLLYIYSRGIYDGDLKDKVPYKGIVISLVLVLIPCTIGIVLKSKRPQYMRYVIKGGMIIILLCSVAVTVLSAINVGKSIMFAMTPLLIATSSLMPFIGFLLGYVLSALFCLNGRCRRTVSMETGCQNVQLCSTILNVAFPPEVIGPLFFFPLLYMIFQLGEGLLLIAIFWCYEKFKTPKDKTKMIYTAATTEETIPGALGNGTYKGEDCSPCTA

[2] = biological target: T1, Hepatic sodium/bile acid cotransporter; assay: TP_TRANSPORTER: inhibition of Taurocholate uptake (Taurocholate: 5 uM, Deoxycholate: 100 uM) in NTCP-expressing HeLa cells; format: functional, cell-based
[3] = biological target: T1, Hepatic sodium/bile acid cotransporter; format: functional, cell-based, HeLa
[4] = biological target: T1, Hepatic sodium/bile acid cotransporter; assay: TP_TRANSPORTER: inhibition of Taurocholate uptake (Taurocholate: 5 uM, Progesterone: 100 uM) in NTCP-expressing HeLa cells; format: functional, cell-based

| SMILES | IC50 [3] | other results |
| --- | --- | --- |
| CCCNC(=O)NS(=O)(=O)c1ccc(Cl)cc1 [CHLORPROPAMIDE] | – | Inhibition [1]: inhibitor [(at a rough estimate) 30 % inhibition] |
| C[C@H](CCC(=O)O)[C@H]1CC[C@H]2[C@@H]3CC[C@@H]4C[C@H](O)CC[C@]4(C)[C@H]3C[C@H](O)[C@]12C [DEOXYCHOLIC ACID] | – | Inhibition [2]: inhibitor [(at a rough estimate) 70 % inhibition] |
| CC(=O)N1CCN(c2ccc(OCC3COC(Cn4ccnc4)(c4ccc(Cl)cc4Cl)O3)cc2)CC1 (stereo not drawn) [KETOCONAZOLE] | 264 µM | – |
| CC(C)NC[C@H](O)COc1cccc2ccccc12 [LEVOPROPRANOLOL] | 6.1 µM | – |
| CC(=O)[C@H]1CC[C@H]2[C@@H]3CCC4=CC(=O)CC[C@]4(C)[C@H]3CC[C@]12C [PROGESTERONE] | – | Inhibition [4]: inhibitor [(at a rough estimate) 80 % inhibition] |
| CC(C)NCC(O)COc1cccc2ccccc12 (stereo not drawn) [PROPRANOLOL] | 5.5 µM | – |
| O=C1OC(c2ccc(O)c(S(=O)(=O)O)c2)(c2ccc(O)c(S(=O)(=O)O)c2)c2c(Br)c(Br)c(Br)c(Br)c21 [SULFOBROMOPHTHALEIN SODIUM] | 7.3 µM | – |
| C[C@H](CCC(=O)O)[C@H]1CC[C@H]2[C@@H]3[C@@H](O)C[C@@H]4C[C@H](O)CC[C@]4(C)[C@H]3CC[C@]12C [URSODIOL] | 3.6 µM | – |
